Experimental data published in patent US20030138423A1, “Method of treating inflammation with HIV-1 protease inhibitors and their derivatives” (CEDARS-SINAI MEDICAL CENTER, priority 2001, published 2003).
“Also recorded” adds a separate entry of the source.

Columns and labels:
[1] = tested on: IL-6; test: LPS-induced IL-6 luciferase activation in HMEC; assay type: cell-based, human; conditions: 1-hour pretreatment
Source text: Interleukin-6 (IL-6) is a known proinflammatory cytokine that mediates development of LPS-induced sepsis and septic shock.

[2] = tested on: TNF-α; test: LPS-induced TNF-α production in THP-LTR-Luc cells, ELISA; assay type: cell-based; conditions: THP-LTR-Luc cells (FIG. 9 legend)
Protocol: After five hours of LPS stimulation, supernatants from HMEC were analyzed for TNF-α production by using an ELISA kit (obtained from R&D Systems; Minneapolis, Minn.) according to manufacturer's instructions. All data for TNF-α represent the average of triplicate samples ±S.D. Each experiment was repeated at least twice.

[3] = tested on: NF-κB; test: TNF-α-induced NF-κB activation in HMEC; assay type: cell-based, human; conditions: one-hour pretreatment, TNF-α 100 ng/ml
[4] = biological target: 20S proteasome (Mus musculus, UniProt O55234); conditions: literature; cited from earlier work
[5] = tested on: NF-κB; test: LPS-induced NF-κB luciferase activation in HMEC; conditions: pretreatment before LPS, nelfinavir 1, 3, 6 μg/ml
[6] = tested on: NF-κB; test: PSM-induced NF-κB luciferase activation in HMEC; assay type: cell-based, human; conditions: one-hour pretreatment
[7] = tested on: NF-κB; test: STF-induced NF-κB luciferase activation in HMEC; assay type: cell-based, human; conditions: one-hour pretreatment
[8] = tested on: IκB-α; test: LPS-induced IκB-α degradation in HMEC, Western blot; assay type: cell-based, human; conditions: HMEC pretreated one hour, LPS 30, 60, 90 minutes
Protocol: Conditioned endothelial cells were lysed for 30 minutes on ice in a lysis buffer containing 0.1 mM ethylenediamine tetra-acetic acid (“EDTA,” available from Sigma), 10 mM NaF, 1 mM Na3VO4, 0.1% Triton X-100, 20 mM Tris-HCl (pH 7.5), and 1 μg/ml each of the protease inhibitors pepstatin, leupeptin, aprotinin, antipain, and chymostatin (all available from Roche).
Following lysis, cell debris was removed by centrifugation (14,000×g, 4° C., 1-2 minutes). Protein concentrations were determined using the Bradford assay. 50 μg of total protein was added in Laemmli buffer, boiled for 5 minutes, resolved by 10% sodium dodecyl sulphate polyacrylamide gel electrophoresis (“SDS-PAGE”) in Tris/glycine/SDS buffer (25 mM Tris, 250 mM glycine, 0.1% SDS), and blotted onto Immunobilon P transfer membranes (obtained from Amersham Pharmacia Biotech UK Ltd.; Buckinghamshire, England, hereinafter “Amersham”) (100 V, 1.5 hours, 4° C.). […] Membranes were thereafter and washed five times in PBST, and bands were detected using ECL reagents (obtained from Amersham) according to manufacturer's description.
Upon exposure of immune system cells to bacterial and mycobacterial antigens, IκB-α degradation is the key step before NF-κB activation. We assessed the effect of nelfinavir pretreatment of HMEC on LPS-induced IκB-α degradation. […] IκB-α degradation was assessed by Western Blot analysis for phosphorylated IκB-α.

[9] = tested on: HMEC; test: LDH release (cell death) in HMEC; assay type: cell-based, human; conditions: pretreatment prior to LPS stimulation
Protocol: For the quantification of nelfinavir-induced cell death, lactate dehydrogenase (LDH) activity in HMEC culture supernatants was measured with a cytotoxicity detection kit (obtained from Roche Diagnostics; Indianapolis, Ind., hereinafter “Roche”) according to manufacturer's instructions. Percentage of LDH activity in the supernatants was calculated according to the following: [(Experimental Value—LDH activity released from untreated cells)/(Maximum Releasable LDH Activity in the Cells by 1% Triton X-100-LDH Activity Released from Untreated Cells)]×100.

[10] = biological target: T1, erythrocyte 20S proteasome (Homo sapiens, UniProt P28074); test: 20S Proteasome Assay, Suc-LLVY-AMC substrate; assay type: biochemical; conditions: SDS-preactivated erythrocyte 20S proteasome
T1 construct: purchased Biomol Research Laboratories, Inc; host or cells: erythrocytes (purified native complex)
Protocol: The effect of nelfinavir on 20S proteasome activity was assessed using a 20S Proteasome Assay Kit (obtained from Biomol Research Laboratories, Inc.; Plymouth Meeting, Pa.) according to manufacturer's instructions. Briefly, erythrocyte 20S proteasome that is preactivated by SDS was added to Suc-LLVY-AMC fluorogenic peptide substrate, which is used to measure the chymotrypsin like peptidase activity, with or without nelfinavir. A proteasome inhibitor, lactacystin, was included as a control. The microtiter plate was read at an approximate excitation of 360 nm and at emission 460 nm. All data represent the average of triplicate samples ±S.D.

[11] = tested on: HIV-LTR; test: LPS-induced HIV-LTR luciferase activation in HMEC; conditions: nelfinavir 1, 3, 6 μg/ml (FIG. 2) or 0.5, 2, 4 μg/ml (FIG. 6)
[12] = tested on: lymphocytic choriomeningitis virus (LCMV); conditions: mice infected with LCMV, literature; cited from earlier work
[13] = tested on: MB-1 (X) and/or LMP7 proteasome subunits; conditions: vinyl sulfone inhibitor 125I-NLVS, literature; cited from earlier work

Row | SMILES | LPS-induced IL-6 luciferase activation [1] | LPS-induced TNF-α production [2] | TNF-α-induced NF-κB activation [3] | chymotrypsin-like activity of the 20S proteasome [4] | LPS-induced NF-κB activation (percent NF-κB luciferase activity) [5] | PSM-induced NF-κB activation (percent NF-κB luciferase activity) [6] | STF-induced NF-κB activation (percent NF-κB luciferase activity) [7] | LPS-induced IκB-α degradation [8] | cell death (LDH release) [9] | chymotrypsin-like activity of 20S proteasome [10] | LPS-induced HIV-LTR activation (percent HIV-LTR luciferase activity) [11] | LCMV replication [12] | protection of proteasome subunits from covalent active site modification [13]
1 | CC(C)(C)NC(=O)[C@@H]1C[C@@H]2CCCC[C@@H]2CN1C[C@@H](O)[C@H](Cc1ccccc1)NC(=O)[C@H](CC(N)=O)NC(=O)c1ccc2ccccc2n1 [saquinavir] | blocked LPS-induced IL-6 luciferase activation | blocked TNF-α production | down-regulated | inhibited chymotrypsin-like activity to a significantly lesser degree | blocked LPS-induced NF-κB activation; also recorded: more potent than indinavir; also recorded: down-regulation of LPS-induced NF-κB activation |  |  |  |  |  |  |  | 
2 | Cc1c(O)cccc1C(=O)N[C@@H](CSc1ccccc1)[C@H](O)CN1C[C@H]2CCCC[C@H]2C[C@H]1C(=O)NC(C)(C)C [nelfinavir] | blocked LPS-induced IL-6 luciferase activation | blocked production to a lesser extent | down-regulated | no inhibition at all | blocked LPS-induced NF-κB activation in a dose-dependent manner; also recorded: decreased the NF-κB activity | blocked NF-κB activation; also recorded: blocked both STF and PSM | blocked NF-κB activation; also recorded: blocked both STF and PSM | markedly less LPS-induced IκB-α degradation; also recorded: delayed the degradation; also recorded: a delay in LPS-induced IκB-α degradation | without inducing apoptosis or death of the cells; also recorded: did not induce cell death; also recorded: not induced | did not inhibit the chymotrypsin-like activity of 20s proteasome | blocked LPS-induced HIV-LTR activation in a dose-dependent manner |  | 
3 | CC(C)(C)NC(=O)[C@@H]1CN(Cc2cccnc2)CCN1C[C@@H](O)C[C@@H](Cc1ccccc1)C(=O)N[C@H]1c2ccccc2C[C@H]1O [indinavir] | blocked LPS-induced IL-6 luciferase activation | blocked TNF-α production |  | no inhibition at all |  |  |  |  |  |  |  |  | 
4 | CC(C)c1nc(CN(C)C(=O)N[C@H](C(=O)N[C@@H](Cc2ccccc2)C[C@H](O)[C@H](Cc2ccccc2)NC(=O)OCc2cncs2)C(C)C)cs1 [ritonavir] | blocked LPS-induced IL-6 luciferase activation | blocked production to a lesser extent | down-regulated | selectively inhibit the chymotrypsin-like activity of the 20S proteasome | blocked LPS-induced NF-κB activation; also recorded: more potent than indinavir; also recorded: down-regulation of LPS-induced NF-κB activation |  |  |  |  |  |  | not affected | protected the MB-1 (X) and/or LMP7 proteasome subunits from covalent active site modification
